Measured values: patent US20260373103A1, “COMPOSITIONS AND METHODS FOR PREVENTING CARDIOMYOPATHY” (OHIO STATE INNOVATION FOUNDATION, priority 2022, published 2026)
“Also recorded” adds a separate entry of the source.

Key:
[1] = system: HeLa-Parkin and HeLa-Parkin cells expressing USP30; experiment: Oxygen consumption, Seahorse assay; assay type: cell-based
Experimental: Measurement of intact cellular respiration was performed using the Seahorse XFe96 Analyzer as previously described. In brief, 2×10^4 cells per well were seeded in the Seahorse XF Cell Culture Microplate (Agilent) using high-glucose DMEM at 37 °C, with a humidified atmosphere of 5% CO2, overnight. And a sensor cartridge was hydrated in Seahorse XF Calibrant in a non-CO2 incubator overnight at 37 °C. The high-glucose DMEM in Cell Culture Microplate was changed to warmed assay medium and placed into a 37 °C non-CO2 incubator for 45 minutes prior to the assay. Oligomycin (1.5 μM/well), FCCP (1 μM/well) and Antimycin A (0.5 μM/well) were supplemented at 18 minutes, 36 minutes and 54 minutes, respectively. The results were analyzed using the Seahorse Wave software.

[2] = system: HeLa-Parkin and HeLa-Parkin cells expressing USP30; experiment: Cell proliferation; assay type: cell-based; settings: ST-539, 24 hours
NDP52 = NDP52 level after A/O, immunoblotting; assay type: cell-based; settings: Parkin positive cells, A/O 18 h, ST-539 3 μg/ml; not in WT HeLa or PINK1 KO cells
Experimental: HeLa cells and mouse embryonic fibroblasts (MEFs) were grown in Dulbecco's minimum essential medium (DMEM) with 10% fetal bovine serum (FBS) supplemented with penicillin-streptomycin. HeLa Parkin, PINK1 KO cells, WT and MFN2 KO cells were previously described. Cells stably expressing USP30 were generated using lentiviral vectors of pLVX-Puro-Myc-USP30. The USP30 plasmid was obtained from Addgene. The plasmid was transferred into a lentiviral vector and viral particles were prepared by transiently transfecting HEK293T using standard methods. For the drug treatment experiments, cells were incubated in medium containing a mixture of 5 μM oligomycin and 5 μM antimycin A (A/O; see figures for treatment times). In 18 h treatment, A/O were used in combination with 10 μM quinolyl-valyl-O-methylaspartyl-[−2,6-difluorophenoxy]-methyl ketone (QVD), a broad-spectrum caspase inhibitor. […]
Genetic suppression of USP30 in Parkin-overexpressing cells promotes the clearance of mitochondria in response to mitochondrial depolarizing agents. […] To investigate if the PINK 1/Parkin pathway is required for ST-539 induced mitophagy, we analyzed TOM20 ubiquitination in wild-type (WT) HeLa cells, which express little to no endogenous Parkin, as well as in WT and PINK1 knockout (KO) HeLa cells stably expressing YFP-tagged Parkin. […]

[3] = system: heart tissue of mt-Keima mice; experiment: In vivo mitophagy in heart, mt-Keima mice; set-up: species or system mouse; settings: 25 mg/kg/day i.p. for 5 days
Experimental: Fluorescent samples were examined with a Zeiss LSM 780 confocal microscope (Carl Zeiss MicroImaging). As previously described^2, fluorescence of mt-Keima was imaged in two channels via two sequential excitations (458 nm, green; 561 nm, red) and using a 570- to 695-nm emission range. Confocal experiments for parkin translocation were performed using a HeLa cell line stably expressing YFP-Parkin plated on 35 mm coverglass #1.5 chamber dishes (MatTek). These cells were treated for 2 h with DMSO as vehicle control or with A/O. YFP was imaged with a 514-nm excitation and 520- to 570-emission filters. Representative confocal images were processed using Imaris software by contrast linear stretch only. Calculation of mitophagy based on mt-Keima signal was performed using Zeiss ZEN software as previously described^2. The average of four images from each tissue sample was taken, and the values were normalized to the average value seen in the controls, assigned the value of one.
The mt-Keima mouse. […] The mice were lightly anesthetized with isoflurane and the ejection fraction, fractional shortening, and ventricular chamber dimensions were determined using 2-D-guided M mode images. Ejection fraction, fractional shortening, ventricular chamber dimensions, and left ventricular mass were calculated automatically using the VevoLAB program. […]

With `CC(C)(C)NS(=O)(=O)c1cccc2c(NC(=O)C(Cc3ccccc3)NC(=O)c3ccccc3)cccc12` (centres unmarked) [ST-539] the “basal and maximal respiration” value ([1]; 24 h ST-539, high dose) was “slight increase”, the “basal respiration and spare respiratory capacity” value ([1]; ST-539, both cell lines) was “Slightly increased” and the cell proliferation [2] was “maintained”. The “reduction in NDP52 level relative to vehicle treated cells” value (NDP52) was “more significant reduction” and the “cardiac mitophagy (red mt-Keima signal in heart tissue)” value [3] was “marked induction of the red signal in the heart tissue; also recorded: efficiently induces cardiac mitophagy”.
